PubChem BioAssay (NCI)
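Method: 48-hour compound exposure of cells in 96-well plates, five concentrations, linear interpolation of endpoints. Abbreviation: GI50, concentration required for 50% inhibition of growth. TGI: concentration producing complete growth inhibition.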

How the values were obtained:
Assay in all cases: NCI-60 cell line screen, 48 h
SR leukemia = test system: SR leukemia
RXF 393 renal = test system: RXF 393 renal
SK-MEL-2 melanoma = test system: SK-MEL-2 melanoma
SNB-75 CNS = test system: SNB-75 CNS
A498 renal = test system: A498 renal
BT-549 breast = test system: BT-549 breast
CAKI-1 renal = test system: CAKI-1 renal
CCRF-CEM leukemia = test system: CCRF-CEM leukemia
COLO 205 colon = test system: COLO 205 colon
DU-145 prostate = test system: DU-145 prostate
HCC-2998 colon = test system: HCC-2998 colon
HCT-15 colon = test system: HCT-15 colon
HL-60(TB) leukemia = test system: HL-60(TB) leukemia
HOP-62 NSCLC = test system: HOP-62 NSCLC
HOP-92 NSCLC = test system: HOP-92 NSCLC
HS 578T breast = test system: HS 578T breast
HT29 colon = test system: HT29 colon
IGROV1 ovarian = test system: IGROV1 ovarian
K-562 leukemia = test system: K-562 leukemia
KM12 colon = test system: KM12 colon
LOX IMVI melanoma = test system: LOX IMVI melanoma
M14 melanoma = test system: M14 melanoma
MALME-3M melanoma = test system: MALME-3M melanoma
MCF7 breast = test system: MCF7 breast
MDA-MB-435 = test system: MDA-MB-435
MOLT-4 leukemia = test system: MOLT-4 leukemia
NCI-H226 lung = test system: NCI-H226 lung
NCI-H23 lung = test system: NCI-H23 lung
NCI-H460 lung = test system: NCI-H460 lung
NCI/ADR-RES ovarian = test system: NCI/ADR-RES ovarian
OVCAR-3 ovarian = test system: OVCAR-3 ovarian
OVCAR-4 ovarian = test system: OVCAR-4 ovarian
OVCAR-5 ovarian = test system: OVCAR-5 ovarian
OVCAR-8 ovarian = test system: OVCAR-8 ovarian
PC-3 prostate = test system: PC-3 prostate
RPMI-8226 leukemia = test system: RPMI-8226 leukemia
SF-295 CNS = test system: SF-295 CNS
SK-MEL-28 melanoma = test system: SK-MEL-28 melanoma
SK-MEL-5 melanoma = test system: SK-MEL-5 melanoma
SK-OV-3 ovarian = test system: SK-OV-3 ovarian
SN12C renal = test system: SN12C renal
SNB-19 CNS = test system: SNB-19 CNS
SW-620 colon = test system: SW-620 colon
TK-10 renal = test system: TK-10 renal
U251 CNS = test system: U251 CNS
UACC-257 melanoma = test system: UACC-257 melanoma
UACC-62 melanoma = test system: UACC-62 melanoma
UO-31 renal = test system: UO-31 renal

Question: Which GI50 (SR leukemia) does the source give for CC(C)(C)c1cc(C#N)cc(Br)c1OP(=O)(Oc1c(Br)cc(C#N)cc1C(C)(C)C)c1ccccc1 here?
Answer: 10.5 µM

Question: How did the GI50 (RXF 393 renal) turn out when ClCC[N+]12CC[N+](CCCl)(CC1)C2 (tested in a mixture with another compound) was run?
Answer: 85.4 µM

Question: And the GI50 (SK-MEL-2 melanoma)?
Answer: 43.2 µM

Question: What about the GI50 (SNB-75 CNS) of the same compound?
Answer: 58.6 µM

Question: How did the TGI (A498 renal) turn out when O=C(N/N=C\C(F)(F)F)c1ccncc1 was run?
Answer: > 100 µM

Question: And the TGI (BT-549 breast)?
Answer: > 100 µM

Question: And the TGI (CAKI-1 renal)?
Answer: > 100 µM

Question: And the TGI (CCRF-CEM leukemia)?
Answer: > 100 µM

Question: And the TGI (COLO 205 colon)?
Answer: > 100 µM

Question: What about the TGI (DU-145 prostate) of the same compound?
Answer: > 100 µM

Question: And the TGI (HCC-2998 colon)?
Answer: > 100 µM

Question: And the TGI (HCT-15 colon)?
Answer: > 100 µM

Question: What about the TGI (HL-60(TB) leukemia) of the same compound?
Answer: > 100 µM

Question: What about the TGI (HOP-62 NSCLC) of the same compound?
Answer: > 100 µM

Question: And the TGI (HOP-92 NSCLC)?
Answer: > 100 µM

Question: What about the TGI (HS 578T breast) of the same compound?
Answer: > 100 µM

Question: What about the TGI (HT29 colon) of the same compound?
Answer: > 100 µM

Question: What about the TGI (IGROV1 ovarian) of the same compound?
Answer: > 100 µM

Question: And the TGI (K-562 leukemia)?
Answer: > 100 µM

Question: And the TGI (KM12 colon)?
Answer: > 100 µM

Question: What about the TGI (LOX IMVI melanoma) of the same compound?
Answer: > 100 µM

Question: What about the TGI (M14 melanoma) of the same compound?
Answer: > 100 µM

Question: And the TGI (MALME-3M melanoma)?
Answer: > 100 µM

Question: What about the TGI (MCF7 breast) of the same compound?
Answer: > 100 µM

Question: What about the TGI (MDA-MB-435) of the same compound?
Answer: > 100 µM

Question: What about the TGI (MOLT-4 leukemia) of the same compound?
Answer: > 100 µM

Question: What about the TGI (NCI-H226 lung) of the same compound?
Answer: > 100 µM

Question: What about the TGI (NCI-H23 lung) of the same compound?
Answer: 50.6 µM

Question: What about the TGI (NCI-H460 lung) of the same compound?
Answer: > 100 µM

Question: And the TGI (NCI/ADR-RES ovarian)?
Answer: > 100 µM

Question: What about the TGI (OVCAR-3 ovarian) of the same compound?
Answer: > 100 µM

Question: And the TGI (OVCAR-4 ovarian)?
Answer: > 100 µM

Question: What about the TGI (OVCAR-5 ovarian) of the same compound?
Answer: > 100 µM

Question: And the TGI (OVCAR-8 ovarian)?
Answer: > 100 µM

Question: What about the TGI (PC-3 prostate) of the same compound?
Answer: > 100 µM

Question: What about the TGI (RPMI-8226 leukemia) of the same compound?
Answer: > 100 µM

Question: What about the TGI (RXF 393 renal) of the same compound?
Answer: > 100 µM

Question: And the TGI (SF-295 CNS)?
Answer: > 100 µM

Question: What about the TGI (SK-MEL-2 melanoma) of the same compound?
Answer: > 100 µM

Question: What about the TGI (SK-MEL-28 melanoma) of the same compound?
Answer: > 100 µM

Question: What about the TGI (SK-MEL-5 melanoma) of the same compound?
Answer: > 100 µM

Question: And the TGI (SK-OV-3 ovarian)?
Answer: > 100 µM

Question: And the TGI (SN12C renal)?
Answer: > 100 µM

Question: And the TGI (SNB-19 CNS)?
Answer: > 100 µM

Question: And the TGI (SNB-75 CNS)?
Answer: > 100 µM

Question: What about the TGI (SR leukemia) of the same compound?
Answer: > 100 µM

Question: What about the TGI (SW-620 colon) of the same compound?
Answer: > 100 µM

Question: And the TGI (TK-10 renal)?
Answer: > 100 µM

Question: And the TGI (U251 CNS)?
Answer: > 100 µM

Question: And the TGI (UACC-257 melanoma)?
Answer: > 100 µM

Question: What about the TGI (UACC-62 melanoma) of the same compound?
Answer: > 100 µM

Question: What about the TGI (UO-31 renal) of the same compound?
Answer: > 100 µM
